Source: patent US20160102058A1, “FLUORO-PERHEXILINE COMPOUNDS AND THEIR THERAPEUTIC USE” (THE UNIVERSITY COURT OF THE UNIVERSITY OF ABERDEEN, priority 2013, published 2016)

Key:
cardiac CPT-1 = molecular target: T1, cardiac CPT-1 (Rattus norvegicus, UniProt Q63704); test: Carnitine palmitoyl transferase (M-CPT-1) inhibition assay, rat heart mitochondria; format: biochemical
T1 construct: 50 μL of mitochondrial suspension, suitably diluted in Assay Buffer; from tissue; host or cells: rat heart mitochondria (Sprague-Dawley)
T1 sequence (Q63704 1-772): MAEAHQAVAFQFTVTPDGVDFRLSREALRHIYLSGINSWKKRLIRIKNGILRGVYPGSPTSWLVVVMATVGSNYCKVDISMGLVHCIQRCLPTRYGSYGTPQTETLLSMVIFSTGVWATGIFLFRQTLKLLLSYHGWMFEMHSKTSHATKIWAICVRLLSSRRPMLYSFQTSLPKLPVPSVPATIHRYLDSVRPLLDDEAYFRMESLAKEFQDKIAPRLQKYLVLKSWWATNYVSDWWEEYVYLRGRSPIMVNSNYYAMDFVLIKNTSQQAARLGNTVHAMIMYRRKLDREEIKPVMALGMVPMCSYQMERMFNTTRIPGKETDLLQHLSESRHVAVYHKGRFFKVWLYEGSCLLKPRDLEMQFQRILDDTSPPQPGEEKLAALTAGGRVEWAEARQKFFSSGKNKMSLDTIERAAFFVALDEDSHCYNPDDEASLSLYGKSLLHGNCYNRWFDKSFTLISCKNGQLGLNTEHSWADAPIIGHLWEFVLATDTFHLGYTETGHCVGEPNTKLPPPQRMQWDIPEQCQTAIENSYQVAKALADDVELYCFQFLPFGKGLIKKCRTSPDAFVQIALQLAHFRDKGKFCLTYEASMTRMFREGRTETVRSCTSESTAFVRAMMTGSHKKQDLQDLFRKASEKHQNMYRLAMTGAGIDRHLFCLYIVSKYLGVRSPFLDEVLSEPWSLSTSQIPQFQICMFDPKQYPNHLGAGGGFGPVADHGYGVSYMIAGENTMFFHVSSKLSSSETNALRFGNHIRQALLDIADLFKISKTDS
Experimental: Male Sprague-Dawley rats (8-10 weeks of age) were purchased from Charles River and maintained for 10 days under standard housing and feeding conditions. All isolation procedures were performed on ice using pre-cooled solutions and instruments. Rats (n=4 per mitochondrial isolation batch) were sacrificed by CO2 asphyxiation, and hearts were removed and rinsed in 3 changes of ice-cold phosphate buffered saline (PBS) to remove blood. Hearts were finely minced with scissors, and homogenised in 5 volumes/wt of a buffer containing 300 mM sucrose, 5 mM MOPS, 1 mM EGTA, 5 mM K2HPO4, 0.1% BSA, pH 7.4, using a teflon Potter homogenizer. The homogenate was centrifuged at 1500×g for 10 min, the supernatant was collected and centrifuged at 9800×g for 5 min, the mitochondrial pellet was washed and centrifuged twice in the same buffer, and then re-suspended in Assay Buffer (150 mM sucrose, 60 mM KCl, 25 mM Tris/HCl, 1 mM EDTA, 0.1 mM 4,4′-dithiopyridine, 1.3 mg/mL lipid-depleted BSA, pH 6.8). Mitochondrial suspensions were kept on ice and used fresh for each set of experiments. A spectrophotometric assay for M-CPT-1 was used, which measured the decrease in palmitoyl CoA concentration as it was utilised by the enzyme to produce palmitoylcarnitine, according to the following reaction: palmitoyl CoA+L-carnitine→palmitoylcarnitine+CoA The disappearance of palmitoyl CoA was monitored as a loss of UV absorbance at 324 nm. Enzyme reactions (1.0 mL final volume, in a spectrophotometer cuvette) contained: • 890 μL of Assay Buffer (see above). • 50 μL of mitochondrial suspension, suitably diluted in Assay Buffer. • 20 μL of 50-fold concentrated inhibitor in suitable vehicle, or vehicle alone. • 20 μL of 2 mM palmitoyl CoA (final concentration 40 μM). • 20 μL of 20 mM L-carnitine (final concentration 400 μM). […] Tubes were incubated at 37° C., and UV absorbance was recorded for 5 min. […] The protein concentration of the mitochondrial suspension was determined using the Bradford assay reagent. […]

CYP2D6 = molecular target: T2, CYP2D6 (Homo sapiens, UniProt P10635); test: Cytochrome P450 2D6 reaction phenotyping (Bactosomes); format: in vitro ADME; conditions: for stability towards CYP2D6 compared with perhexiline (in words): versus perhexiline; for half-life at 5 μM: human, pH 7.4, read-out: T½
T2 construct: purchased Cypex Ltd; host or cells: bacterial membranes (Bactosomes)
T2 sequence (P10635 whole entry): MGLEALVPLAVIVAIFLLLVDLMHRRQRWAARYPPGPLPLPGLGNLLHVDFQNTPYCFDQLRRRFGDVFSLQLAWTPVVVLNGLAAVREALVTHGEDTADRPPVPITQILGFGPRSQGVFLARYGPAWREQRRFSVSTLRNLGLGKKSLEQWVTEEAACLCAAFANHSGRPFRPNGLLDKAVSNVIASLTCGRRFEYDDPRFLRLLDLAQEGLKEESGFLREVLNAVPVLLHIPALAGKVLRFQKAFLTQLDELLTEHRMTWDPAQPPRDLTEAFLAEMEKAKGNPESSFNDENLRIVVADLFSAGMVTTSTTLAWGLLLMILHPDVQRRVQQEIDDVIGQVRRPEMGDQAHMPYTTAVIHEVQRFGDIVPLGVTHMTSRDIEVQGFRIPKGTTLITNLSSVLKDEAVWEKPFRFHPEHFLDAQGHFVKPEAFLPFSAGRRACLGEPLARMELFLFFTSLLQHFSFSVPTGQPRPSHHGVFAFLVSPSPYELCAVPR
Experimental: The stability of fluoroperhexiline derivatives towards CYP2D6-mediated metabolism was measured by determination of the rate of compound disappearance when incubated in the presence CYP2D6 recombinant isoform expression systems (Bactosomes™). The percentage of parent compound remaining at each time point (following correction for any loss in the incubations with the control bactosomes) is calculated. cDNA expressed human CYP450 enzyme preparations co-expressed with human NADPH cytochrome P450 reductase (Bactosomes™) are supplied by Cypex Ltd. Bactosomes™ are stored at −80° C. prior to use. […] Incubations are also performed using control bactosomes (no P450 enzymes present) to reveal any non-enzymatic degradation. The final incubation volume is 25 μL. A compound known to be metabolised specifically by CYP2D6 isoform is used as a control compound. Each compound is incubated singly for 0, 5, 15, 30 and 45 min with each isoform. The reactions are stopped by the addition of 50 μL methanol containing internal standard at the appropriate time points. The incubation plates are centrifuged at 2500 rpm for 20 min at 4° C. to precipitate the protein. Following protein precipitation, the sample supernatants are combined in cassettes of up to four compounds and analysed using Cyprotex generic LC-MS/MS conditions. The natural logarithm of the peak area ratio (which has been corrected for any loss in the incubations with the control bactosomes) is plotted against time and the gradient of the line determined. Elimination Rate Constant (k)=(−Gradient).

[1] = recombinant CYP2D6 Bactosomes, 5 μM test compound

| IC50 (cardiac CPT-1) | T½ (CYP2D6; [1]) | Compound | stability towards CYP2D6 compared with perhexiline (in words) (CYP2D6) | half-life at 5 μM (CYP2D6; [1]) |
| --- | --- | --- | --- | --- |
| 35 µM | 104 min | FC1(F)CCC(C(CC2CCCCN2)C2CCCCC2)CC1 (mixture of isomers) [FPER-001, 2-(2-Cyclohexyl-2-(4,4-difluorocyclohexyl)ethyl)piperidine] | substantial increase in stability towards CYP2D6 |  |
| 85 µM |  | FC1CCC(C(CC2CCCCN2)C2CCCCC2)CC1 (mixture of isomers) [FPER-003, 2-(2-Cyclohexyl-2-(4-fluorocyclohexyl)ethyl)piperidine] | no increase in stability | 16 min |

| Compound | IC50 (cardiac CPT-1) | T½ (CYP2D6; [1]) | stability towards CYP2D6 compared with perhexiline (in words) (CYP2D6) | half-life at 5 μM (CYP2D6; [1]) |
| --- | --- | --- | --- | --- |
| C1CCC(C(CC2CCCCN2)C2CCCCC2)CC1 (centres unmarked) [Perhexiline, 2-(2,2-dicyclohexylethyl)piperidine] | 18 µM |  |  | 14 min |
